Laboratory results reported in ChEMBL document CHEMBL4507292 (2021).

How the values were obtained:
[1] = target: Tyrosine-protein kinase ABL1 (Homo sapiens) (UniProt P00519); conditions: Compound concentration 1000.0 nM
[2] = target: Activin receptor type-2A (Homo sapiens) (UniProt P27037); conditions: Compound concentration 1000.0 nM
[3] = target: Aurora kinase A (Homo sapiens) (UniProt O14965); conditions: Compound concentration 1000.0 nM
[4] = target: Calcium/calmodulin-dependent protein kinase kinase 2 (Homo sapiens) (UniProt Q96RR4); conditions: Compound concentration 1000.0 nM
[5] = target: Cyclin-dependent kinase 4 (Homo sapiens) (UniProt P11802); conditions: Compound concentration 1000.0 nM
[6] = target: Serine/threonine-protein kinase Chk2 (Homo sapiens) (UniProt O96017); conditions: Compound concentration 1000.0 nM
[7] = target: Myotonin-protein kinase (Homo sapiens) (UniProt Q09013); conditions: Compound concentration 1000.0 nM
[8] = target: Serine/threonine-protein kinase MRCK gamma (Homo sapiens) (UniProt Q6DT37); conditions: Compound concentration 1000.0 nM
Sequence of Serine/threonine-protein kinase MRCK gamma (Homo sapiens) (Q6DT37 whole entry): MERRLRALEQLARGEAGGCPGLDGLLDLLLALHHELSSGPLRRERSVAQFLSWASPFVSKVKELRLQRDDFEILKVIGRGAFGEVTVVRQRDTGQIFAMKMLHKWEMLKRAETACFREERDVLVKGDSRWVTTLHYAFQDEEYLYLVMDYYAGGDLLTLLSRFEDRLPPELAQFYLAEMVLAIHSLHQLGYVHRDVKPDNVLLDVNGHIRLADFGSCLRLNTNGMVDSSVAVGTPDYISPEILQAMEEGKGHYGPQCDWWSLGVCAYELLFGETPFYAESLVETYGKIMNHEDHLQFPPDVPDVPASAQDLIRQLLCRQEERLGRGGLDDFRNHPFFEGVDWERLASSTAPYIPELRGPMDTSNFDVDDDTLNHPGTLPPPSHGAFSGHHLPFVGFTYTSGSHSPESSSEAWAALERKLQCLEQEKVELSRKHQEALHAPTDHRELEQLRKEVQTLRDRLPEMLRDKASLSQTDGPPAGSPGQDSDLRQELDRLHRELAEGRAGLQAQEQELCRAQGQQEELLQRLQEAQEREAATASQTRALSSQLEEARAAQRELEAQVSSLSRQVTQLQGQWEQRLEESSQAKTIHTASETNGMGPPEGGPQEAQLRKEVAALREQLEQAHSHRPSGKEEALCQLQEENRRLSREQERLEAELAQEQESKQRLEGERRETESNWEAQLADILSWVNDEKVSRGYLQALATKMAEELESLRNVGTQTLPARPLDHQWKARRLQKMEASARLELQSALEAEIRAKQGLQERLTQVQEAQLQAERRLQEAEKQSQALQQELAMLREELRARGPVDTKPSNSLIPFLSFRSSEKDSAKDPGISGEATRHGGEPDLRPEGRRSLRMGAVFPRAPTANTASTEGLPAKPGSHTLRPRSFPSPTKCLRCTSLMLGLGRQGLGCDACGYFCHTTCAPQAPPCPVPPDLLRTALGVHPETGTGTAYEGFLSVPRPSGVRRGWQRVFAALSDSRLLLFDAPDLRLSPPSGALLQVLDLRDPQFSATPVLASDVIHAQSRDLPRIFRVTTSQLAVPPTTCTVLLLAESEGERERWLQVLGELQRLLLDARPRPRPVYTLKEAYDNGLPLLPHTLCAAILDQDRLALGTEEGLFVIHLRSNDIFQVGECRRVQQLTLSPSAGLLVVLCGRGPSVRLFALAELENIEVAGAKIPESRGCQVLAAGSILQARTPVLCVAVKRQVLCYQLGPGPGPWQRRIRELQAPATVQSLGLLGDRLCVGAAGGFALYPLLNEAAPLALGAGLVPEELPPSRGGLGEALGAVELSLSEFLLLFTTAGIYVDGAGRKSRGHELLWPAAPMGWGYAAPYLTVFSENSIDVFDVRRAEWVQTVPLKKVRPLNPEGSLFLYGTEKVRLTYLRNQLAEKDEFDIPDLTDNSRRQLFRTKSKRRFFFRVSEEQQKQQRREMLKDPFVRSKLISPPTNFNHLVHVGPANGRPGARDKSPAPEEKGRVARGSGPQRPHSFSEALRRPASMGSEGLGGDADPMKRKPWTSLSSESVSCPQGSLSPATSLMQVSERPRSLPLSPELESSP

[9] = target: Serine/threonine-protein kinase 17B (Homo sapiens) (UniProt O94768); conditions: Compound concentration 1000.0 nM
[10] = target: Dual specificity tyrosine-phosphorylation-regulated kinase 1B (Homo sapiens) (UniProt Q9Y463); conditions: Compound concentration 1000.0 nM
[11] = test system: Epidermal growth factor receptor (Homo sapiens), P00533 [G719C]; conditions: Compound concentration 1000.0 nM
[12] = test system: Epidermal growth factor receptor (Homo sapiens), P00533 [UNDEFINED MUTATION]; conditions: Compound concentration 1000.0 nM
[13] = target: Ephrin type-A receptor 2 (Homo sapiens) (UniProt P29317); conditions: Compound concentration 1000.0 nM
[14] = target: Focal adhesion kinase 1 (Homo sapiens) (UniProt Q05397); conditions: Compound concentration 1000.0 nM
[15] = target: Homeodomain-interacting protein kinase 4 (Homo sapiens) (UniProt Q8NE63); conditions: Compound concentration 1000.0 nM
[16] = target: Insulin receptor (Homo sapiens, UniProt P06213); conditions: Compound concentration 1000.0 nM
[17] = target: Insulin receptor-related protein (Homo sapiens) (UniProt P14616); conditions: Compound concentration 1000.0 nM
[18] = target: Tyrosine-protein kinase JAK2 (Homo sapiens) (UniProt O60674); conditions: Compound concentration 1000.0 nM
Sequence of Tyrosine-protein kinase JAK2 (Homo sapiens) (O60674 whole entry): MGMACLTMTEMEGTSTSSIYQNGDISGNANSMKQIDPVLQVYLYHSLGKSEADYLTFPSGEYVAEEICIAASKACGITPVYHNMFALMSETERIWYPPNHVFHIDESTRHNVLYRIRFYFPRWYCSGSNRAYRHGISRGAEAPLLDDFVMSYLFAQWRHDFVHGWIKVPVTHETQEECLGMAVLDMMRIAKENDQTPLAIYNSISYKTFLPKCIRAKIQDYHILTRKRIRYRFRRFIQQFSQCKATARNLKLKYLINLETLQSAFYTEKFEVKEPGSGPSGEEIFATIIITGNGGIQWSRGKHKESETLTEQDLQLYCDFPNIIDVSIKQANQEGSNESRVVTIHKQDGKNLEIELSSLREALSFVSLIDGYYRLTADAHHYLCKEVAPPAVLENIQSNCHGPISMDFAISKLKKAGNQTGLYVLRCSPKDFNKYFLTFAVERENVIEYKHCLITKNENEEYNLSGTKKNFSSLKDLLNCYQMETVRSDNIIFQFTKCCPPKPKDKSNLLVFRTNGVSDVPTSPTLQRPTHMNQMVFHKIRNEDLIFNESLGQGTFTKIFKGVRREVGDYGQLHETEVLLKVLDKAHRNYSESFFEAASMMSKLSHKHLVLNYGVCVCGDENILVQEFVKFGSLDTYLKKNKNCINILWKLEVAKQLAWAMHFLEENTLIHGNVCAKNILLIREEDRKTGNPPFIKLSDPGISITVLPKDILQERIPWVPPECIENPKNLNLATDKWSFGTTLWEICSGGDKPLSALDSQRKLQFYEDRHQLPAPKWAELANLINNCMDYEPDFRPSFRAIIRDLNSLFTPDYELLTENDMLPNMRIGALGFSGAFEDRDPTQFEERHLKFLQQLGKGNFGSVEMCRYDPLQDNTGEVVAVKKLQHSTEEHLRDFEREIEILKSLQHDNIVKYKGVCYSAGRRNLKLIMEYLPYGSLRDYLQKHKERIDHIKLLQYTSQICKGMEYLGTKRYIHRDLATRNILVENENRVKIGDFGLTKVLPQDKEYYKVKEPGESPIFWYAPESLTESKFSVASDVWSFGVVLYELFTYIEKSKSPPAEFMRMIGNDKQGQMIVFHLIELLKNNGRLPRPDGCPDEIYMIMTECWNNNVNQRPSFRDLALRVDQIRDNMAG

[19] = test system: Mast/stem cell growth factor receptor Kit (Homo sapiens), P10721 [V559D,T670I]; conditions: Compound concentration 1000.0 nM
[20] = target: Mitogen-activated protein kinase kinase kinase 4 (Homo sapiens) (UniProt Q9Y6R4); conditions: Compound concentration 1000.0 nM
[21] = target: Microtubule-associated serine/threonine-protein kinase 1 (Homo sapiens) (UniProt Q9Y2H9); conditions: Compound concentration 1000.0 nM
Sequence of Microtubule-associated serine/threonine-protein kinase 1 (Homo sapiens) (Q9Y2H9 whole entry, looked up): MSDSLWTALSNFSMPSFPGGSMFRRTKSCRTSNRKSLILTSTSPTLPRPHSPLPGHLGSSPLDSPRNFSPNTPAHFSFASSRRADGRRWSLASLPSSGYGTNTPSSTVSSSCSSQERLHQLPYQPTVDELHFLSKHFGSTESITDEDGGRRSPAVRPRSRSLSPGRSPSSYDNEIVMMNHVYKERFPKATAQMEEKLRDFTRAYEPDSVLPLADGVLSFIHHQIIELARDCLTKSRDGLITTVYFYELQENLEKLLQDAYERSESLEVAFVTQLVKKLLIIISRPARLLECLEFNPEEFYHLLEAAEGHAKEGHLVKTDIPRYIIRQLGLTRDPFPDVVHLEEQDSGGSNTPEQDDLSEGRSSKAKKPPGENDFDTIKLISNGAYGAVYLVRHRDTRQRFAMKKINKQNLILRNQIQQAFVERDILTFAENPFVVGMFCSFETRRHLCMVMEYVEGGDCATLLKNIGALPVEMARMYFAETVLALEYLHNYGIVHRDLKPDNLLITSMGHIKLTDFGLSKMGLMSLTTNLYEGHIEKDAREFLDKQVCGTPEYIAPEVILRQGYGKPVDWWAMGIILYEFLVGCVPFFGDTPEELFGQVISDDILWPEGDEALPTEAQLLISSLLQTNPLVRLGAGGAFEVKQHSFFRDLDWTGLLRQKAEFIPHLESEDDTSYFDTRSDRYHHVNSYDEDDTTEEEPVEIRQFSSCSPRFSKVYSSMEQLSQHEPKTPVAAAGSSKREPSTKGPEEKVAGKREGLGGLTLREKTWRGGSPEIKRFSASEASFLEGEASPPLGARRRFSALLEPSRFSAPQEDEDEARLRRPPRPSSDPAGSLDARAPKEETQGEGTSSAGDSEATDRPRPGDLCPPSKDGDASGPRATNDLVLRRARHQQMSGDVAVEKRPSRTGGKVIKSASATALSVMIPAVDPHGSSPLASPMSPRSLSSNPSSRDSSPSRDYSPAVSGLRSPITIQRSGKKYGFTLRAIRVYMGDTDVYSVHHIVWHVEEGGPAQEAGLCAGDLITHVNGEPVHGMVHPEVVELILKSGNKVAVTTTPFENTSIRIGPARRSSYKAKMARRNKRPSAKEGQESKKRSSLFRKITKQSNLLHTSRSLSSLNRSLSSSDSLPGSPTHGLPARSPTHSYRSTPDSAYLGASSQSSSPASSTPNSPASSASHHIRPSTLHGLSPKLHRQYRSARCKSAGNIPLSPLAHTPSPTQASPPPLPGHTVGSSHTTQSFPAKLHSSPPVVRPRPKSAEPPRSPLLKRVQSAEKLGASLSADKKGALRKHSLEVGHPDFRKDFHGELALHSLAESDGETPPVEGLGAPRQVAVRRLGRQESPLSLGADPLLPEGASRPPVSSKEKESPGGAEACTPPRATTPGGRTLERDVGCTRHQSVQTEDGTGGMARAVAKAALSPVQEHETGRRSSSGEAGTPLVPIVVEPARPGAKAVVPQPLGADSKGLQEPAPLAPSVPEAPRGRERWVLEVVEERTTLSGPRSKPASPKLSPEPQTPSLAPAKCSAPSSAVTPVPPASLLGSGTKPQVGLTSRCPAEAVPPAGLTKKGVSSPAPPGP

[22] = target: Dual specificity mitogen-activated protein kinase kinase 1 (Homo sapiens) (UniProt Q02750); conditions: Compound concentration 1000.0 nM
[23] = target: Serine/threonine-protein kinase Nek1 (Homo sapiens) (UniProt Q96PY6); conditions: Compound concentration 1000.0 nM
[24] = target: Serine/threonine-protein kinase Nek10 (Homo sapiens) (UniProt Q6ZWH5); conditions: Compound concentration 1000.0 nM
[25] = target: Serine/threonine-protein kinase Nek6 (Homo sapiens) (UniProt Q9HC98); conditions: Compound concentration 1000.0 nM
Sequence of Serine/threonine-protein kinase Nek6 (Homo sapiens) (Q9HC98 whole entry, canonical isoform): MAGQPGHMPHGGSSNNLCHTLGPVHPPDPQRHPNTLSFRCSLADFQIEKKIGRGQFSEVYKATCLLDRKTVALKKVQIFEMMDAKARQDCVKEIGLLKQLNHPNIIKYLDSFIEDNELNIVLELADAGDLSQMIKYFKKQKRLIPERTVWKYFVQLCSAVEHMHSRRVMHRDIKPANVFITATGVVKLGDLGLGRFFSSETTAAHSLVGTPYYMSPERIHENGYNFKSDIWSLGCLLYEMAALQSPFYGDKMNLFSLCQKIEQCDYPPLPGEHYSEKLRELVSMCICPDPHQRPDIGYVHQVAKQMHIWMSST

[26] = test system: Phosphatidylinositol 4,5-bisphosphate 3-kinase catalytic subunit alpha isoform (Homo sapiens), P42336 [E542K]; conditions: Compound concentration 1000.0 nM
[27] = test system: Phosphatidylinositol 4,5-bisphosphate 3-kinase catalytic subunit alpha isoform (Homo sapiens), P42336 [E545A]; conditions: Compound concentration 1000.0 nM
[28] = test system: Phosphatidylinositol 4,5-bisphosphate 3-kinase catalytic subunit alpha isoform (Homo sapiens), P42336 [M1043I]; conditions: Compound concentration 1000.0 nM
[29] = target: Phosphatidylinositol 5-phosphate 4-kinase type-2 gamma (Homo sapiens) (UniProt Q8TBX8); conditions: Compound concentration 1000.0 nM
[30] = test system: Proto-oncogene tyrosine-protein kinase receptor Ret (Homo sapiens), P07949 [M918T]; conditions: Compound concentration 1000.0 nM
[31] = target: Receptor-interacting serine/threonine-protein kinase 2 (Homo sapiens) (UniProt O43353); conditions: Compound concentration 1000.0 nM
[32] = target: Serine/threonine-protein kinase 33 (Homo sapiens) (UniProt Q9BYT3); conditions: Compound concentration 1000.0 nM
[33] = target: Serine/threonine-protein kinase 36 (Homo sapiens) (UniProt Q9NRP7); conditions: Compound concentration 1000.0 nM
[34] = target: Mitogen-activated protein kinase kinase kinase 7 (Homo sapiens) (UniProt O43318); conditions: Compound concentration 1000.0 nM
[35] = target: Activated CDC42 kinase 1 (Homo sapiens) (UniProt Q07912); conditions: Compound concentration 1000.0 nM
[36] = target: BDNF/NT-3 growth factors receptor (Homo sapiens) (UniProt Q16620); conditions: Compound concentration 1000.0 nM
[37] = target: Transient receptor potential cation channel subfamily M member 6 (Homo sapiens) (UniProt Q9BX84); conditions: Compound concentration 1000.0 nM
[38] = target: Non-receptor tyrosine-protein kinase TYK2 (Homo sapiens) (UniProt P29597); conditions: Compound concentration 1000.0 nM
[39] = target: Serine/threonine-protein kinase ULK3 (Homo sapiens) (UniProt Q6PHR2); conditions: Compound concentration 1000.0 nM
[40] = target: Vascular endothelial growth factor receptor 2 (Homo sapiens) (UniProt P35968); conditions: Compound concentration 1000.0 nM
[41] = target: Serine/threonine-protein kinase VRK2 (Homo sapiens) (UniProt Q86Y07); conditions: Compound concentration 1000.0 nM
[42] = target: Serine/threonine-protein kinase WNK4 (Homo sapiens) (UniProt Q96J92); conditions: Compound concentration 1000.0 nM
[43] = target: 5-hydroxytryptamine receptor 1B (Homo sapiens) (UniProt P28222); conditions: Compound concentration 10.0 uM
[44] = target: Kappa-type opioid receptor (Homo sapiens, UniProt P41145); conditions: Compound concentration 10.0 uM
[45] = target: Muscarinic acetylcholine receptor M4 (Homo sapiens) (UniProt P08173); conditions: Compound concentration 10.0 uM

Sequence of Activin receptor type-2A (Homo sapiens) (P27037 whole entry): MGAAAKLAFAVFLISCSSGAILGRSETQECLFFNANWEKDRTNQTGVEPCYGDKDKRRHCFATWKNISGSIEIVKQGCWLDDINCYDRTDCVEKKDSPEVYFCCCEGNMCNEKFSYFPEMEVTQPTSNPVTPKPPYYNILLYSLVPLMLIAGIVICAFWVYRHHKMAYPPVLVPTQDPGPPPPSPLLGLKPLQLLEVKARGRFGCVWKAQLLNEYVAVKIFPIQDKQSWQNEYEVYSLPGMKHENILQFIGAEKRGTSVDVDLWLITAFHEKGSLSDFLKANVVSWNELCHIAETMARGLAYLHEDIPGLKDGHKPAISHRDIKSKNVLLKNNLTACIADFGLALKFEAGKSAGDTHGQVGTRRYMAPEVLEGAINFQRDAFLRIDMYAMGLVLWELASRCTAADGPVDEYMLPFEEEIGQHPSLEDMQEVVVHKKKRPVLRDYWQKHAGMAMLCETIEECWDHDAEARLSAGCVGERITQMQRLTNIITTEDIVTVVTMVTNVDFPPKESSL

Cc1c(C(=O)O)cc(-c2ccc(C3CCNCC3)cc2)c2ccc(-c3ccc(C(F)(F)F)cc3)cc12 [PPTN-NC]
inactive: residual activity [1] 85% | residual activity [2] 87% | residual activity [3] 100% | residual activity [4] 100% | residual activity [5] 100% | residual activity [6] 100% | residual activity [7] 86% | residual activity [8] 100% | residual activity [9] 100% | residual activity [10] 74% | residual activity [11] 100% | residual activity [12] 100% | residual activity [13] 100% | residual activity [14] 100% | residual activity [15] 100% | residual activity [16] 100% | residual activity [17] 100% | residual activity [18] 100% | residual activity [19] 100% | residual activity [20] 100% | residual activity [21] 100% | residual activity [22] 100% | residual activity [23] 100% | residual activity [24] 100% | residual activity [25] 100% | residual activity [26] 99% | residual activity [27] 100% | residual activity [28] 100% | residual activity [29] 100% | residual activity [30] 100% | residual activity [31] 100% | residual activity [32] 100% | residual activity [33] 86% | residual activity [34] 100% | residual activity [35] 100% | residual activity [36] 100% | residual activity [37] 100% | residual activity [38] 100% | residual activity [39] 95% | residual activity [40] 100% | residual activity [41] 100% | residual activity [42] 100% | inhibition [43] 14.4% | inhibition [44] 27.9% | inhibition [45] -5.54%

O=C(O)c1cc(-c2ccc(C3CCNCC3)cc2)c2ccc(-c3ccc(C(F)(F)F)cc3)cc2c1 [PPTN]
inactive: residual activity [1] 72% | residual activity [2] 100% | residual activity [3] 100% | residual activity [4] 100% | residual activity [5] 100% | residual activity [6] 100% | residual activity [7] 100% | residual activity [8] 100% | residual activity [9] 100% | residual activity [10] 88% | residual activity [11] 100% | residual activity [12] 100% | residual activity [13] 100% | residual activity [14] 100% | residual activity [15] 100% | residual activity [16] 100% | residual activity [17] 100% | residual activity [18] 100% | residual activity [19] 100% | residual activity [20] 100% | residual activity [21] 100% | residual activity [22] 100% | residual activity [23] 100% | residual activity [24] 100% | residual activity [25] 100% | residual activity [26] 100% | residual activity [27] 87% | residual activity [28] 100% | residual activity [29] 100% | residual activity [30] 92% | residual activity [31] 100% | residual activity [32] 100% | residual activity [33] 100% | residual activity [34] 100% | residual activity [35] 100% | residual activity [36] 100% | residual activity [37] 100% | residual activity [38] 100% | residual activity [39] 100% | residual activity [40] 100% | residual activity [41] 100% | residual activity [42] 100% | inhibition [43] 20.4% | inhibition [44] 41.7% | inhibition [45] -4.96%
